Reference: PMC9266368, “Synthesis and Biological Evaluation of Small Molecules as Potential Anticancer Multitarget Agents” (International Journal of Molecular Sciences, 2022)
“And” between values parts separate entries of the source, which are not always exact repeats. Equal values may be shown once.

Experiments:
PD-L1 = target: T1, PD-L1 (Homo sapiens, UniProt Q9NZQ7); assay: Protein thermal shift (PTS) assay; assay type: binding; conditions: for PTS Tm: PD-L1 melting temperature, DMSO 34 °C; for PTS ΔTm: shift of PD-L1 melting temperature vs DMSO
T1 construct: purchased ab167713
T1 sequence (Q9NZQ7 19-290): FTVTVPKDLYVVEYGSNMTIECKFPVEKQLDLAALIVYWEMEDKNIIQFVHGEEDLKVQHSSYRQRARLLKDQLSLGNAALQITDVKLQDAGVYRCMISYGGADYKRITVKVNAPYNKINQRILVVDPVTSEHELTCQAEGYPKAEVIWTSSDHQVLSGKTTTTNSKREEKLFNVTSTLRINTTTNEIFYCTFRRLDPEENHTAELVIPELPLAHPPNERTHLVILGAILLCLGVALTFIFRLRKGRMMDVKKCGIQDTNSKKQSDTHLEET
Text: This assay measures the melting point (Tm) of the target protein which is a proxy of its stability that can be altered by the binding of a ligand. A change in the melting point relative to the unliganded form implies that a ligand has bound itself to the targeted protein. According to the fundamentals of this technique, an increase in Tm means that the binding of the ligand leads to a stabilization of the target protein, while a decrease in Tm is probably due to the fact that the binding between the ligand and its target leads to a destabilization of the protein. In this case, the tested compounds were able to change the PD-L1 melting temperature.
PTS assay was performed by following the instructions indicated in Protein Thermal ShiftTM Dye Kit (Applied Biosystems reference 4461146), using 2 μL of a 0.1 mg/mL of an aqueous solution of PD-L1 (reference ab167713) and 1.5 μL of a 0.1 mg/mL aqueous solution of the corresponding product. The melting curves were registered by a StepOneTM Real-Time PCR System.

c-Myc = c-Myc relative quantification by flow cytometry; assay type: cell-based, human; conditions: for c-Myc relative detection, A-549 / c-Myc relative detection, HT-29 / c-Myc relative detection, MCF-7: 24 h, 100 or 10 μM (Table 7), relative to DMSO control
Experimental: The study was carried out again on HT-29, A-549, and MCF-7 cell lines by flow cytometry after 24 h of treatment with the corresponding compounds. The presence of the targets in the whole cell were relatively determined by using DMSO-treated cells as a negative control and BMS-8 as a positive one for PD-L1 (Table 3).
(§1) To study the effect of the compounds on every biological target in cancer cell lines the compounds were used at a 100 or 10 μM dose, depending on their IC50 and the treated cell line.
(§2) For the assay, 10^5 cells per well were incubated for 24 h with the corresponding dose of the tested compound in a total volume of 500 μL of their growth media.
For the detection of total PD-L1, VEGFR-2, and c-Myc, the procedure was the same as for membrane targets, but after fixation, a treatment with 0,5% in PBS TritonTM X-100 was performed. The antibodies used for PD-L1 and VEGFR-2 were the ones previously described, and for the detection of c-Myc, it was FITC Rabbit monoclonal anti-c-Myc (ab223913).

[1] = target: T2, membrane VEGFR-2 (mVEGFR-2) (Homo sapiens, UniProt P35968); assay: Membrane VEGFR-2 relative quantification by flow cytometry; assay type: cell-based; conditions: for mVEGFR-2 relative detection, A-549 / mVEGFR-2 relative detection, HT-29 / mVEGFR-2 relative detection, MCF-7: 24 h, 100 or 10 μM (Table 7), sorafenib 10 μM, percentage referred to DMSO control; for Inhibition of membrane VEGFR-2, HT-29: with respect to untreated cells
T2 construct: endogenous in cells; host or cells: HT-29, A-549, MCF-7
T2 sequence (P35968 20-1356): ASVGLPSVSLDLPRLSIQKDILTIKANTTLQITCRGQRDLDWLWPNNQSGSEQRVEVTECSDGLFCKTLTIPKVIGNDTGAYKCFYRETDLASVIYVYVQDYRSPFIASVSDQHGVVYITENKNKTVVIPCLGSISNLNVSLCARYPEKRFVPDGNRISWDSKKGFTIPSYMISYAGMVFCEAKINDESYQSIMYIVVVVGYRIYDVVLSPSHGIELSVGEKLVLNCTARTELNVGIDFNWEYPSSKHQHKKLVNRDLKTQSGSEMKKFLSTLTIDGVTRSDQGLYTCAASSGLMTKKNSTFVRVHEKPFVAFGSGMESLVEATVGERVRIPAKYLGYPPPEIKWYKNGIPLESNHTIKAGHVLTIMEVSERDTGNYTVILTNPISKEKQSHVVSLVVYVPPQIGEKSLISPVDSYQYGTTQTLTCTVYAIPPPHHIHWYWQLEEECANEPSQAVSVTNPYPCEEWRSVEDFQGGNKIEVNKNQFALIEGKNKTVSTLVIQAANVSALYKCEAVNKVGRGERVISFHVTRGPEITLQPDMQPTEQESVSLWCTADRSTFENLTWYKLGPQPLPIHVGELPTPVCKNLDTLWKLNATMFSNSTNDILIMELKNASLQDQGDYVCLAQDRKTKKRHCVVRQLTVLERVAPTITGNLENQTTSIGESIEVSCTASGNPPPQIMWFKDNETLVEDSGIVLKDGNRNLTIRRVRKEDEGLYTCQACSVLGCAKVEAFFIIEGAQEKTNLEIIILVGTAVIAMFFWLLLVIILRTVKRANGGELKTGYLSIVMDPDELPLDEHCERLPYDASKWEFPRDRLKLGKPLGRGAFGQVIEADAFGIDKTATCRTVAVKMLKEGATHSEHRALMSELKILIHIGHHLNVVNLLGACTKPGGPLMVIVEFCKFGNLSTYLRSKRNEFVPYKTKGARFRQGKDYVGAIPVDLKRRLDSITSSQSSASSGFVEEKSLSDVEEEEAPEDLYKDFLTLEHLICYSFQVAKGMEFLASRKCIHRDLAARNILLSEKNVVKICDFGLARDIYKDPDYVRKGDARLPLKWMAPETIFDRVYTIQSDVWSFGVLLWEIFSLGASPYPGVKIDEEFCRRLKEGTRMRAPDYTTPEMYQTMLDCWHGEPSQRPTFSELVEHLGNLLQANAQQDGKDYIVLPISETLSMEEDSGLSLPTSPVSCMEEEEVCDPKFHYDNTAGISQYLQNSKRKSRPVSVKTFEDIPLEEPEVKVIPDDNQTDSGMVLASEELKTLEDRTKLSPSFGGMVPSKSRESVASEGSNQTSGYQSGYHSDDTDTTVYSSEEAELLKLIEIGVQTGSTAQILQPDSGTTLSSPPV
Experimental: The presence of both targets in the membrane was relatively determined by using DMSO-treated cells as a negative control.
as §2

membrane PD-L1 (mPD-L1) = target: T3, membrane PD-L1 (mPD-L1) (Homo sapiens, UniProt Q9NZQ7); assay: Membrane PD-L1 relative quantification by flow cytometry; assay type: cell-based; conditions: for mPD-L1 relative detection, A-549 / mPD-L1 relative detection, MCF-7 / mPD-L1 relative detection, HT-29: 24 h, 100 or 10 μM (Table 7), percentage referred to DMSO control
T3 construct: endogenous in cells; host or cells: HT-29, A-549, MCF-7
T3 sequence (Q9NZQ7 19-290): as the sequence (Q9NZQ7 19-290) above
Experimental: Based on antiproliferative activity of synthetized derivatives, we decided to study the effect of the amino derivatives 14–26 on the expression of both membrane targets PD-L1 and VEGFR-2 (mPD-L1 and mVEGFR-2). The evaluation was performed on three cancer cell lines (HT-29, A-549, and MCF-7) by flow cytometry after 24 h of treatment with the corresponding compounds. Compounds were used at a 100 or 10 μM concentration depending on their IC50 value (see Table 1 in Materials and Methods section). The presence of both targets in the membrane was relatively determined by using DMSO-treated cells as a negative control.
as §1, §2
To detect membrane PD-L1 and VEGFR-2, after the cell treatments, they were collected, fixed with 4% in PBS paraformaldehyde, and stained with FITC Mouse monoclonal Anti-Human VEGFR-2 (ab184903) and Alexa Fluor® 647 Rabbit monoclonal Anti-PD-L1 (ab215251).

[2] = HT-29, compared to non-treated cells

PTS Tm (PD-L1) [°C]	PTS ΔTm (PD-L1) [°C]	mVEGFR-2 relative detection, A-549 [1] [%]	mVEGFR-2 relative detection, HT-29 [1]	mVEGFR-2 relative detection, MCF-7 [1] [%]	mPD-L1 relative detection, A-549 (membrane PD-L1 (mPD-L1)) [%]	mPD-L1 relative detection, MCF-7 (membrane PD-L1 (mPD-L1)) [%]	Inhibition of membrane VEGFR-2, HT-29 [1] [%]	mPD-L1 relative detection, HT-29 (membrane PD-L1 (mPD-L1); HT-29) [%]	Reduction/inhibition of membrane PD-L1, HT-29 (membrane PD-L1 (mPD-L1); [2])	Compound	c-Myc relative detection, A-549 (c-Myc) [%]	c-Myc relative detection, HT-29 (c-Myc; HT-29) [%]	c-Myc relative detection, MCF-7 (c-Myc) [%]	Inhibition of c-Myc, HT-29 (c-Myc; [2]) [%]
30	−4	>100	92 ± 5%	>100	95 ± 5	83 ± 7				Nc1ccc(-c2cn(Cc3ccccc3Cl)nn2)cc1 [Compound 21, 4-(1-(2-chlorobenzyl)-1H-1,2,3-triazol-4-yl)aniline]	>100	>100	59 ± 6	
26	−8	>100		>100	82 ± 18	90 ± 2	~40	27 ± 5		Nc1ccc(-c2cn(Cc3cccc(Cl)c3)nn2)cc1 [Compound 22, 4-(1-(3-chlorobenzyl)-1H-1,2,3-triazol-4-yl)aniline]	>100	>100	59 ± 5	
29	−5	>100	65% and 65 ± 4%	>100	>100	86 ± 3	~40	38 ± 5	around 70%	Nc1ccc(-c2cn(Cc3ccc(Cl)cc3)nn2)cc1 [Compound 23, 4-(1-(4-chlorobenzyl)-1H-1,2,3-triazol-4-yl)aniline]	>100	84 ± 5	51 ± 8	20
